Measured values published in ChEMBL document CHEMBL1139142, “Discovery of 4-amino-5,6-biaryl-furo[2,3-d]pyrimidines as inhibitors of Lck: development of an expedient and divergent synthetic route and preliminary SAR” (Bioorg Med Chem Lett, 2007).

Legend:
[1] = system: T-cell; test: Inhibition of T cell activation in human mixed lymphocyte reaction; format: functional, cell-based
[2] = biological target: Activated CDC42 kinase 1 (Homo sapiens, UniProt Q07912); test: Inhibition of Ack1
[3] = biological target: Tyrosine-protein kinase Lck (Homo sapiens, UniProt P06239); test: Inhibition of Lck
[4] = system: T-cell; test: Inhibition of anti-CD3/CD28-induced IL2 secretion in human T cells; format: functional, cell-based
[5] = Inhibition of IGFR; design: species or system Homo sapiens
[6] = biological target: Vascular endothelial growth factor receptor 2 (Homo sapiens, UniProt P35968); test: Inhibition of KDR
[7] = biological target: Tyrosine-protein kinase JAK2 (Homo sapiens, UniProt O60674); test: Inhibition of Jak2
[8] = biological target: T1, Tyrosine-protein kinase ZAP-70 (Homo sapiens, UniProt P43403); test: Inhibition of ZAP70
T1 sequence (P43403 whole entry): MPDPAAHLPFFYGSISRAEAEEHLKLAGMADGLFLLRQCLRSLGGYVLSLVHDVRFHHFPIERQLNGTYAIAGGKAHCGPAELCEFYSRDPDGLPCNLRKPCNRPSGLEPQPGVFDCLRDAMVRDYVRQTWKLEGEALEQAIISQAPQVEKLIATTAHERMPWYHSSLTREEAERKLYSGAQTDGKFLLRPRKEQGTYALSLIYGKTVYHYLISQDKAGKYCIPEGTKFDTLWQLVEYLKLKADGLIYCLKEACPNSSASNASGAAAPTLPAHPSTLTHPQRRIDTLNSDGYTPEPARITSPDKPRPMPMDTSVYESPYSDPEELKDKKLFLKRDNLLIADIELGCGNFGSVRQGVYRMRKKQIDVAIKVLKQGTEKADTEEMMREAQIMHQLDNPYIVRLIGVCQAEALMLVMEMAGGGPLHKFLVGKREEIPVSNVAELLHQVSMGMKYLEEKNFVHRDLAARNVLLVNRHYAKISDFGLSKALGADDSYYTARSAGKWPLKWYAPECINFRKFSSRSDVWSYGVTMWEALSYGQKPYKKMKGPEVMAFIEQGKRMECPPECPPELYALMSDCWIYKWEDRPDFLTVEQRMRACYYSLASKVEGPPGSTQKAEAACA

[9] = biological target: Proto-oncogene tyrosine-protein kinase Src (Homo sapiens, UniProt P12931); test: Inhibition of Src
[10] = biological target: T2, Tyrosine-protein kinase JAK3 (Homo sapiens, UniProt P52333); test: Inhibition of Jak3
T2 sequence (P52333 whole entry): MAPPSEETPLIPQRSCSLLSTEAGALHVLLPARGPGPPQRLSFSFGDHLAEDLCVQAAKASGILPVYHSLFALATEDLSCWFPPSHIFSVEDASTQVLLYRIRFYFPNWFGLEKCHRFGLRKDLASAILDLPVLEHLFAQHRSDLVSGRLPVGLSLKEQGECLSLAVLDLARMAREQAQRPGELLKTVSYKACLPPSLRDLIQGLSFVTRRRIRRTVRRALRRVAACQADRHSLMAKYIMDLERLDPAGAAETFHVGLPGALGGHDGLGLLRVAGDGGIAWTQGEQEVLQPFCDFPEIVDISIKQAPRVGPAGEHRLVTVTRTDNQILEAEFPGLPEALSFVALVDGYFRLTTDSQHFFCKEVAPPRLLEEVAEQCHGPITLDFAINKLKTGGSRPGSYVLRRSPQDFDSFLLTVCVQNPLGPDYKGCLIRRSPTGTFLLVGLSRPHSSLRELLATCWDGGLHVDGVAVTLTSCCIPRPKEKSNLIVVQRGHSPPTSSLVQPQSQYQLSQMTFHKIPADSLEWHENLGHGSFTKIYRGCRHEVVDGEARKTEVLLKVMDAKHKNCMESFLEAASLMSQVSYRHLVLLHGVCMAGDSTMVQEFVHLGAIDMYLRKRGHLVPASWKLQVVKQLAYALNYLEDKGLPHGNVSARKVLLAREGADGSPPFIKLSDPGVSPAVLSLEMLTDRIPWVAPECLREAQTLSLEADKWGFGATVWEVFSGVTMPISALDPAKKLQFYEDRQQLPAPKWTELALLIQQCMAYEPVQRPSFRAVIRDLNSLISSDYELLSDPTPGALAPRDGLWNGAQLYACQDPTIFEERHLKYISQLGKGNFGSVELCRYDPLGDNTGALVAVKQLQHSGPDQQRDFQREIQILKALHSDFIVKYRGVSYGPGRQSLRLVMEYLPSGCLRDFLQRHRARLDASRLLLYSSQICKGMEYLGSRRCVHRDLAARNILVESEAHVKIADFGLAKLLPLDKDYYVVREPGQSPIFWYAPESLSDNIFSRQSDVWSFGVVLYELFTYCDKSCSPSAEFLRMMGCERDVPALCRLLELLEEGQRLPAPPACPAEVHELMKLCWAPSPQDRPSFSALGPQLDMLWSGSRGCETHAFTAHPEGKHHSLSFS

[11] = biological target: Epidermal growth factor receptor (Homo sapiens, UniProt P00533)
[12] = biological target: Angiopoietin-1 receptor (Homo sapiens, UniProt Q02763); test: Inhibition of Tie2
[13] = Volume of distribution at steady state in Sprague-Dawley rat at 1 mg/kg, iv; format: ADME, organism-based; design: dose 1 mg/kg, route intravenous; conditions: in vivo, read-out: Vdss
[14] = Cmax in Sprague-Dawley rat at 5 mg/kg, po; format: ADME, organism-based; design: dose 5 mg/kg, route oral; conditions: in vivo
[15] = Clearance in Sprague-Dawley rat at 1 mg/kg, iv; format: ADME, organism-based; design: dose 1 mg/kg, route intravenous; conditions: in vivo
[16] = AUC (0 to infinity) in Sprague-Dawley rat at 5 mg/kg, po; format: ADME, organism-based; design: time infinity, dose 5 mg/kg, route oral; conditions: plasma
[17] = Half life in Sprague-Dawley rat at 1 mg/kg, iv; format: ADME, organism-based; design: dose 1 mg/kg, route intravenous; conditions: in vivo
[18] = Oral bioavailability in Sprague-Dawley rat at 5 mg/kg; format: ADME, organism-based; conditions: in vivo

Chain of Activated CDC42 kinase 1 (Q07912 whole entry): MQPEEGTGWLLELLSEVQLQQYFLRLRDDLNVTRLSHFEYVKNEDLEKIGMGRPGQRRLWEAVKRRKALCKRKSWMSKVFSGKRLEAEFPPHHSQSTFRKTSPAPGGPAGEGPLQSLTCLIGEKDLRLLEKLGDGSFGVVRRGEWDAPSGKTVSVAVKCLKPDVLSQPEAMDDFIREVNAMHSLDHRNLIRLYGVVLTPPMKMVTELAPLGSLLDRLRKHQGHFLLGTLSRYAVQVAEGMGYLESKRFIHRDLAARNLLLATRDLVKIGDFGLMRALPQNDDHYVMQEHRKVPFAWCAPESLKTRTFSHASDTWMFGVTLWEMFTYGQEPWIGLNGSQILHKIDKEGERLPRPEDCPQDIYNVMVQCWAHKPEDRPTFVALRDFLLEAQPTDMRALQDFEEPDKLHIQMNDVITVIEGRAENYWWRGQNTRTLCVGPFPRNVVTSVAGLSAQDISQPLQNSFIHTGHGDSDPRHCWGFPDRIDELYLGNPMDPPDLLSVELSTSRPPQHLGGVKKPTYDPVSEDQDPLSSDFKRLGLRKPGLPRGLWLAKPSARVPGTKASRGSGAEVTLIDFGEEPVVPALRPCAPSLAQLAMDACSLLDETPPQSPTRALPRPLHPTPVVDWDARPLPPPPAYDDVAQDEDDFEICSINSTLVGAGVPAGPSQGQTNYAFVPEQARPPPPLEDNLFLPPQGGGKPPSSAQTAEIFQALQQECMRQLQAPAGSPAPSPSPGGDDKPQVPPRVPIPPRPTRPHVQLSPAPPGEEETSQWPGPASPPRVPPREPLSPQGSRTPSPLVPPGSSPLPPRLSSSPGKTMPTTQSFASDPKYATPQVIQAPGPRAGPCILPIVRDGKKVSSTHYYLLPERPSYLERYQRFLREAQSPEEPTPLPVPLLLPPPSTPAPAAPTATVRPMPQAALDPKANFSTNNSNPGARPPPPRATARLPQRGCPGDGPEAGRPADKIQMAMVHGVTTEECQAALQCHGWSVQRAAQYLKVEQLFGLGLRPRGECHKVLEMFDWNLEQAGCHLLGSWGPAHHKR
Chain of Tyrosine-protein kinase Lck (P06239 whole entry): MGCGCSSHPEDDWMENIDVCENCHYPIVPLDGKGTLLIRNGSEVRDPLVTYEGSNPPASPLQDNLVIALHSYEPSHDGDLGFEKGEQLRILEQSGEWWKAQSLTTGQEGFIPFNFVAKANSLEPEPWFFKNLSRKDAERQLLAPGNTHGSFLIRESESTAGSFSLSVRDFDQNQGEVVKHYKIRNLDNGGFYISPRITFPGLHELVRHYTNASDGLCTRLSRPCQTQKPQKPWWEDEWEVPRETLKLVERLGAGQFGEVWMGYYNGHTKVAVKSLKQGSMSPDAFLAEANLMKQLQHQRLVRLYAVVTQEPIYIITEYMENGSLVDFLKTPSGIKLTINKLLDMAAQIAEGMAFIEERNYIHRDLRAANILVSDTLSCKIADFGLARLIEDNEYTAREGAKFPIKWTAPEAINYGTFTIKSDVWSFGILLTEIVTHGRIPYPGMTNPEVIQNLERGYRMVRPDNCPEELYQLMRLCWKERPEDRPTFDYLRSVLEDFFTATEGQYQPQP
Chain of Proto-oncogene tyrosine-protein kinase Src (P12931 2-536 limits assumed): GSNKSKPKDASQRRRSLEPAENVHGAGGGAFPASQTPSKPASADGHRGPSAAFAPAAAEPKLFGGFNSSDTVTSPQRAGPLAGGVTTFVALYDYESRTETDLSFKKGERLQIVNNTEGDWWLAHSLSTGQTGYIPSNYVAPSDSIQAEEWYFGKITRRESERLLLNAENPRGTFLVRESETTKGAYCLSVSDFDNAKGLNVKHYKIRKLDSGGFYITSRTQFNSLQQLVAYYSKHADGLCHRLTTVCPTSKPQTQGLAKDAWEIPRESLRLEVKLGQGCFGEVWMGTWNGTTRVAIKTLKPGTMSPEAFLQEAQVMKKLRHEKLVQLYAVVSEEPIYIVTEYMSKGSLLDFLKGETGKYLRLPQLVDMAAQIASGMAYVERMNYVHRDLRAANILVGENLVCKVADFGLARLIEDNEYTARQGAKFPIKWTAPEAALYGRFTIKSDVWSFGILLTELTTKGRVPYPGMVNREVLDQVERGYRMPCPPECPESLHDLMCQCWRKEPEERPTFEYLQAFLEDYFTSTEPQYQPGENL
Chain of Angiopoietin-1 receptor (Q02763 whole entry): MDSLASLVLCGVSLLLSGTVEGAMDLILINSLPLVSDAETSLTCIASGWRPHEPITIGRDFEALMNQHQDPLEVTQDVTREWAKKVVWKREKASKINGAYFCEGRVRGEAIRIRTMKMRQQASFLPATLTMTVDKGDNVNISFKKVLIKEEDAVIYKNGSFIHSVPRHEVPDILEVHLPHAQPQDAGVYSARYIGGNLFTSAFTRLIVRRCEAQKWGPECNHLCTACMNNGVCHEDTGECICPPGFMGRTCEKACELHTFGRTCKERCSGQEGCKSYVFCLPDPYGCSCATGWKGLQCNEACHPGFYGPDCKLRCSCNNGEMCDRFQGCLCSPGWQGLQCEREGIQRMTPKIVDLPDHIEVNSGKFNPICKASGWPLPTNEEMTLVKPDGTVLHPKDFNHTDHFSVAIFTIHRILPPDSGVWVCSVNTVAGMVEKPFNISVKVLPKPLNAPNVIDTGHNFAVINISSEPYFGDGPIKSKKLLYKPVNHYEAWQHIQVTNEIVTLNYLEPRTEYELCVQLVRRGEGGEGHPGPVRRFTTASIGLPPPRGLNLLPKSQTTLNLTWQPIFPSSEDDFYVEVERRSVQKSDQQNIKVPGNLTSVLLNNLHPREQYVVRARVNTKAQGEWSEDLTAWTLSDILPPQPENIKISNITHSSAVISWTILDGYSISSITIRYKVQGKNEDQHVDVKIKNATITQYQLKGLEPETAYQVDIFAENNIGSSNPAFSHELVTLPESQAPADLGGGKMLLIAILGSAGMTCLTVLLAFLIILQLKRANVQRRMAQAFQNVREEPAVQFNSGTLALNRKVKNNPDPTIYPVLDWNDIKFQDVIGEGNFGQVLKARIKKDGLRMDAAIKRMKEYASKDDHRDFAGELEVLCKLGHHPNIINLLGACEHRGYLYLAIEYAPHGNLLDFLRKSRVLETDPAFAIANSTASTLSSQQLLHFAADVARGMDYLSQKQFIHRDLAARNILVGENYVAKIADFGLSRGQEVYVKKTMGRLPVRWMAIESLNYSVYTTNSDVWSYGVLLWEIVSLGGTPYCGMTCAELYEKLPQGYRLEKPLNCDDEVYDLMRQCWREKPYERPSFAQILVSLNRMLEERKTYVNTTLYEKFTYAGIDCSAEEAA
Chain of Tyrosine-protein kinase JAK2 (O60674 whole entry): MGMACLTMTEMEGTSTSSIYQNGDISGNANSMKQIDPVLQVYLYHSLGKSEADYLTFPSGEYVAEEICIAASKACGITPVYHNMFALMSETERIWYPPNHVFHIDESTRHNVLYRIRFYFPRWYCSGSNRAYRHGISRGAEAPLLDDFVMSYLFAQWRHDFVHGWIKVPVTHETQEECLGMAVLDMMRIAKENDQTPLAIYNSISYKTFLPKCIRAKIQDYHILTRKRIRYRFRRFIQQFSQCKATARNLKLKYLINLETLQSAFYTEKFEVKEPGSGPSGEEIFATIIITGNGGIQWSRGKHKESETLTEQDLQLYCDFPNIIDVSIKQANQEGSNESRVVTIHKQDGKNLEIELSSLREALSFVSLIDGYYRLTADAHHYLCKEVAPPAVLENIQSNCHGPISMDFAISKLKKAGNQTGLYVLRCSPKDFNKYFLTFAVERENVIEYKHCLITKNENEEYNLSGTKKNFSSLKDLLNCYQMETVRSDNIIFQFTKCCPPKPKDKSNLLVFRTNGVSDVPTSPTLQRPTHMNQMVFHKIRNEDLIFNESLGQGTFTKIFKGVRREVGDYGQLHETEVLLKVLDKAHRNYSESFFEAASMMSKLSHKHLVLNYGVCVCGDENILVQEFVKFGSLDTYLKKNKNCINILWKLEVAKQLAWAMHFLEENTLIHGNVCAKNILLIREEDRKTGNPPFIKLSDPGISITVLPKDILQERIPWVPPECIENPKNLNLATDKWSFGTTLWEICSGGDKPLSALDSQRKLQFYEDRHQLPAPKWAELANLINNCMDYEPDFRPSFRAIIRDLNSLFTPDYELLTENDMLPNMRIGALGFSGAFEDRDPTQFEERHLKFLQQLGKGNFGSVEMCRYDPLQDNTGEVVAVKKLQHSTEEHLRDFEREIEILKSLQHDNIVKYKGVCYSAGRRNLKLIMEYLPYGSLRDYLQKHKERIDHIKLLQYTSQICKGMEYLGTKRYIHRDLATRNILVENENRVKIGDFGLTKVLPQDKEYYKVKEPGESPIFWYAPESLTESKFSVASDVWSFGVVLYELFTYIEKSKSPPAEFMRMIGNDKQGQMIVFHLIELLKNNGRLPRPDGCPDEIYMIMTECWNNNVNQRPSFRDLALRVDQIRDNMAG

`c1ccc(-c2c(-c3ccc(OCCN4CCCC4)cc3)oc3ncnc(NCCC4CCNCC4)c23)cc1` showed an IC50 [1] of 2450 nM, an IC50 [2] of 332 nM and an IC50 [3] of 14 nM.
`COc1cc(-c2oc3ncnc(NC[C@@H]4CCCO4)c3c2-c2ccccc2)ccc1OCCN1CCCCC1` gave an IC50 [1] of 825 nM, an IC50 [2] of 38 nM and an IC50 [4] of 193 nM. For the same compound, the IC50 [3] was 8 nM.
`c1ccc(CCNc2ncnc3oc(-c4ccc(OCCN5CCCC5)cc4)c(-c4ccccc4)c23)cc1` gave an IC50 [1] of 1670 nM, an IC50 [2] of 1 nM and an IC50 [4] of 5720 nM. For the same compound, the IC50 [3] was 5 nM.
In the case of `c1ccc(-c2c(-c3ccc(CN4CCOCC4)cc3)oc3ncnc(NCCN4CCNCC4)c23)cc1`, the IC50 [1] is reported as 138 nM, the IC50 [2] is reported as 91 nM and the IC50 [3] is reported as 27 nM.
Work on `c1ccc(-c2c(-c3ccc(N4CCOCC4)cc3)oc3ncnc(NCCN4CCNCC4)c23)cc1` yielded an IC50 [1] of 227 nM, an IC50 [2] of 17 nM and an IC50 [3] of 11 nM.
Work on `O=C(c1ccc(-c2oc3ncnc(NCCN4CCNCC4)c3c2-c2ccccc2)cc1)N1CCCCC1` yielded an IC50 [1] of 121 nM, an IC50 [2] of 85 nM and an IC50 [3] of 22 nM.
With `c1ccc(-c2c(-c3ccc(OCCN4CCCC4)cc3)oc3ncnc(NCCN4CCNCC4)c23)cc1` the IC50 [5] was 3150 nM, the IC50 [6] was 3100 nM and the IC50 [7] was over 8.33 µM. For the same compound, the IC50 [8] was 992 nM, the IC50 [9] was 45 nM and the IC50 [10] was 960 nM. For the same compound, the IC50 [11] was 397 nM, the IC50 [1] was 227 nM and the IC50 [2] was 98 nM. The IC50 [12] was over 25 µM, the IC50 [4] was 430 nM and the IC50 [3] was 9 nM.
In the case of `CN1CCN(Cc2ccc(-c3oc4ncnc(NC[C@@H]5CCCO5)c4c3-c3ccccc3)cc2)CC1`, the IC50 [1] is reported as 337 nM, the IC50 [2] is reported as 7 nM and the IC50 [4] is reported as 293 nM. The IC50 [3] was 6 nM.
With `CN1CCOc2cc(-c3oc4ncnc(NCCN5CCNCC5)c4c3-c3ccccc3)ccc21` the IC50 [1] was 3080 nM, the IC50 [2] was 97 nM and the IC50 [3] was 42 nM.
`c1ccc(-c2c(-c3ccc(OCCN4CCCC4)cc3)oc3ncnc(NC[C@@H]4CCCO4)c23)cc1` showed an IC50 [1] of 670 nM, an IC50 [2] of 16 nM and an IC50 [4] of 435 nM. It also gave an IC50 [3] of 11 nM.
Work on `CC(C)(C)Nc1ncnc2oc(-c3ccc(OCCN4CCCC4)cc3)c(-c3ccccc3)c12` yielded an IC50 [1] of 2380 nM, an IC50 [2] of 650 nM and an IC50 [4] of 3260 nM. The IC50 [3] was 83 nM.
`c1ccc(-c2oc3ncnc(NC[C@@H]4CCCO4)c3c2-c2ccccc2)cc1` gave an IC50 [1] of 8950 nM, an IC50 [2] of 24 nM and an IC50 [4] of 2410 nM. It also gave an IC50 [3] of 122 nM.
In the case of `c1ccc(-c2oc3ncnc(NC[C@H]4CCCO4)c3c2-c2ccccc2)cc1`, the IC50 [1] is reported as 2130 nM, the IC50 [2] is reported as 523 nM and the IC50 [3] is reported as 1210 nM.
In the case of `CN(C)CCOc1ccc(-c2oc3ncnc(NC[C@@H]4CCCO4)c3c2-c2ccccc2)cc1`, the IC50 [1] is reported as 464 nM, the IC50 [2] is reported as 11 nM and the IC50 [4] is reported as 119 nM. It also gave an IC50 [3] of 6 nM.
For `CN(C)CCOc1ccc(-c2oc3ncnc(NCCN4CCNCC4)c3c2-c2ccccc2)cc1`, the IC50 [1] was 360 nM, the IC50 [2] was 148 nM and the IC50 [4] was 468 nM. The IC50 [3] was 14 nM.
`CCN1CCN(C(=O)c2ccc(-c3oc4ncnc(NC[C@@H]5CCCO5)c4c3-c3ccccc3)cc2)CC1` gave an IC50 [1] of 437 nM, an IC50 [2] of 13 nM and an IC50 [4] of 2420 nM. The IC50 [3] was 11 nM.
In the case of `CC(C)Nc1ncnc2oc(-c3ccc(OCCN4CCCC4)cc3)c(-c3ccccc3)c12`, the IC50 [5] is reported as 1490 nM, the IC50 [6] is reported as 537 nM and the IC50 [7] is reported as 4.89 µM. It also gave an IC50 [8] of 3270 nM, an IC50 [9] of 914 nM and an IC50 [10] of 1430 nM. It also gave an IC50 [11] of 1030 nM, an IC50 [1] of 533 nM and an IC50 [2] of 78 nM. The IC50 [12] was over 8.33 µM, the IC50 [4] was 199 nM and the IC50 [3] was 36 nM.
Compound `COc1cc(-c2oc3ncnc(NCCN4CCNCC4)c3c2-c2ccccc2)ccc1OCCN1CCCCC1` has an IC50 [1] of 3220 nM, an IC50 [2] of 586 nM and an IC50 [4] of 2630 nM. It also gave an IC50 [3] of 22 nM.
`c1ccc(-c2oc3ncnc(NCCN4CCNCC4)c3c2-c2ccccc2)cc1` gave a Vd [13] of 2.77 L/kg, an IC50 [1] of 1710 nM and an IC50 [2] of 181 nM. It also gave a Cmax [14] of 180 ng/mL, a clearance [15] of 14.8 mL/min/kg and an IC50 [4] of 690 nM. The AUC(0-inf) [16] was 1040 ng·h/mL, the half-life [17] was 142 min and the bioavailability [18] was 15%.
